Experimental data reported in US8754094B2, “Methods for heat shock protein dependent cancer treatment” (The Research Foundation of State University of New York, priority 2007, dated 2014).
“Also recorded” adds a separate entry of the source. Residues, ends and D or L forms follow the SMILES beside them. *: point of attachment. Cbz = O=C(OCc1ccccc1)*

Key:
[1] = system: XBP-1 mRNA splicing; test: RT-PCR analysis of XBP-1 mRNA splicing (UPR) in NCI-H929; assay type: cell-based, human; conditions: for XBP-1 mRNA splicing at early time points: NCI-H929, early time points (4 h), concentrations that gave synergistic cytotoxicity
Description: Total RNA was prepared from NCI-H929 and HEK293 cells using TRIzol reagent (Invitrogen, Carlsbad, Calif.) following exposure to MAL3-101, MG-132, and 17-AAG alone and in combination at the indicated time points. Tunicamycin was used at varying concentrations.
Total RNAs were used for the first-strand synthesis with the Superscript reverse transcriptase (Invitrogen, Carlsbad, Calif.). PCR primers (5′-[…]-3′ [Seq. ID No. 1] and 5′-[…]-3′ [Seq. ID No. 2]) encompassing the missing sequences in XPB-1s were used for the PCR amplification with AmpliTaq Gold polymerase (Applied Biosystem, Foster City, Calif.) with a probe set spanning the spliced-out region. PCR products were separated by electrophoresis on a 3% agarose gel (Agarose-1000, Invitrogen) and visualized them by ethidium bromide staining to assess the degree of X-box binding protein-1 unspliced (XBP-1u, ˜280 bp) and spliced (XBP-1s, ˜265 bp) mRNA.
Unspliced (XBP-1u, 285 bp) and spliced (XBP-1s, 259 bp) XBP-1 mRNA levels of treated NCI-H929 were determined by PCR amplification of total RNA that was reverse transcribed by SuperScript Reverse Transcriptase (Invitrogen, Carlsbad, Calif.). PCR primers (5′-[…]-3′ [Seq. ID No. 1] and 5′-[…]-3′ [Seq. ID No. 2]), which flank the 26-nt intron of XBP1 mRNA, were used for PCR amplification with Ex Taq polymerase (Takara Bio, Shiga, Japan).

[2] = system: normal control BM, PBMC, and EPC populations; test: MTS survival assay, normal control cells; assay type: cell-based; conditions: FIG. 36D
Description: MAL3-101 (the structure is shown as the final product in FIG. 12, in FIG. 13, and in FIG. 25B), the proteasome inhibitor MG-132 (A.G. Scientific, San Diego, Calif.) and the Hsp90 inhibitor 17-allylamino-17-demethoxygeldanamycin (17-AAG) (Calbiochem/EMD Biosciences, San Diego, Calif.) were dissolved in dimethylsulfoxide (DMSO; Sigma-Aldrich, St. Louis, Mo.), and stored at −20° C. Final concentration of DMSO was 0.03% and this was used to treat control cells. The MM cell lines examined were NCI-H929, RPMI-8226, and U266 (ATCC, Manassas, Va.). Normal peripheral blood mononuclear cells (PBMC) and bone marrow (BM) cells were obtained from StemCell Technologies (Vancouver, Canada). Primary MM cells and EPCs were from BM aspirates of newly-diagnosed patients following informed consent. MM cells were enriched to >95% CD138^+ cells by positive selection, using anti-CD138 MACS Microbeads according to the manufacturer's instructions (Miltenyi, San Diego, Calif.). […]

[3] = system: NCI-H929; test: Western immunoblotting of caspase-3 and PARP cleavage, NCI-H929; assay type: cell-based, human; conditions: NCI-H929, 10 μM, time course
Description: Whole-cell lysates were prepared using the Mammalian Cell Lysis Kit (Sigma-Aldrich) and analyzed by Western blot analysis as described in the Zhang reference, cited supra, which is incorporated herein by reference. Equal amounts of protein were separated by SDS-PAGE and electrotransferred onto a nylon membrane. Primary antibodies to detect caspase-3 (Cell Signaling Technology, Danvers, Mass.), poly (ADP-ribose) polymerase (PARP; Abcam, Cambridge, Mass.), and β-actin (Sigma Aldrich) were used along with a HP-conjugated goat-anti-mouse polyclonal secondary antibody (BD Biosciences, Franklin Lakes, N.J.). Enhanced chemiluminescence (ECL) substrate (Pierce Biotechnology, Rockford, Ill.) was used for antibody detection.

[4] = system: NCI-H929; test: Annexin V / PI flow cytometry apoptosis assay, NCI-H929; assay type: cell-based, human; conditions: for induction of apoptosis at 18 h: NCI-H929, 18 h, MAL3-101 10 μM, MG-132 0.1 μM, alone or combined
Description: Each experiment was repeated at least three times. Every experimental condition was repeated at least in triplicate wells for every experiment. For cell death assays, 10^6 MM cells were exposed to media or drug for the indicated incubation periods, washed with 1× phosphate-buffered saline (PBS), pH 7.4 (Invitrogen) and resuspended in 500 μL, binding buffer (Annexin V-PI detection kit (Immunotech/Beckman Coulter, Fullerton, Calif.), containing 1 μL, annexin V-fluorescein isothiocyanate (FITC) stock and 5 μL 20 μg/mL […] (PI) to determinate the phosphatidylserine (PS) exposure on the outer plasma membrane. After incubation for 15 minutes at room temperature in the dark, the specimens were quantified by dual-color flow cytometry, acquiring 10,000 events. Cells that were Annexin V-FITC+(with translocation of phosphatidylserine from the inner to the outer leaflet of the plasma membrane) and PI− (with intact cellular membrane) were considered as early apoptotic cells.
Apoptosis induction in control (DMSO-treated) or inhibitor treated cells was determined using an Annexin-V-FLUOS Staining Kit according to the manufacturer's instructions (Roche, Indianapolis, Ind.). Briefly, cells (1×10^5) were harvested at indicated time points after treatment, and Annexin V-fluorescein isothiocyanate (FITC) and propidium iodide (PI) were added to individual samples and incubated for 30 min in a dark environment. Fluorescence was analyzed by a FACSort flow cytometer (BD Biosciences, San Jose, Calif.) by acquiring 10,000 events per sample.

SMILES | XBP-1 mRNA splicing at high concentration ([1]; NCI-H929, 30 μM, after 24 h of culture) | XBP-1 mRNA splicing at early time points [1] | cytotoxicity in normal control cells [2] | cleavage of caspase-3 and PARP [3] | apoptosis over time ([4]; NCI-H929, 10 μM, FACS) | induction of apoptosis at 18 h [4]
CCCCCCN(C(=O)CCCCCN1C(=O)NC(c2ccc(-c3ccccc3)cc2)C(C(=O)OCc2ccccc2)=C1C)C(C(=O)NCCCC)c1ccc(OCC(=O)OC)c(C(=O)OC)c1 (centres unmarked) [MAL3-101] | minimal XBP-1 mRNA splicing occurred | there does not appear to be an effect; also recorded: no XBP-1 mRNA splicing was observed | lack of cytotoxicity; also recorded: lack of sensitivity | time-dependent increase in the cleavage of caspase-3 and PARP | time-dependent increase in apoptosis | neither drug alone was effective in inducing apoptosis
CC(C)C[C@@H](C=O)NC(=O)[C@H](CC(C)C)NC(=O)[C@H](CC(C)C)NC(=O)OCc1ccccc1 [MG-132, reference compound] (Cbz-Leu-Leu-Leu-aldehyde) |  | no XBP-1 mRNA splicing was observed |  |  |  | neither drug alone was effective in inducing apoptosis
